Laboratory results: ChEMBL document CHEMBL5126592, “Design, synthesis and activity against drug-resistant bacteria evaluation of C-20, C-23 modified 5-O-mycaminosyltylonolide derivatives” (Eur J Med Chem, 2022)
≈ marks a conversion by molar mass, not a printed value.

Key:
Assay type in all cases: functional
Conditions in all cases: time 16-20 hrs
[1] = tested on: Staphylococcus chromogenes; test: Antibacterial activity against Staphylococcus chromogenes incubated for 16 to 20 hrs by broth microdilution method
Staphylococcus aureus [2] = test: Antibacterial activity against Staphylococcus aureus ATCC 25923 incubated for 16 to 20 hrs by broth microdilution method
[3] = tested on: Streptococcus dysgalactiae; test: Antibacterial activity against Streptococcus dysgalactiae incubated for 16 to 20 hrs by broth microdilution method
Klebsiella pneumoniae = test: Antibacterial activity against Klebsiella pneumoniae ATCC 13883 incubated for 16 to 20 hrs by broth microdilution method
Pseudomonas aeruginosa = test: Antibacterial activity against Pseudomonas aeruginosa LTP-3 incubated for 16 to 20 hrs by broth microdilution method
Cronobacter sakazakii = test: Antibacterial activity against Cronobacter sakazakii ATCC 29544 incubated for 16 to 20 hrs by broth microdilution method
Escherichia coli [4] = test: Antibacterial activity against Escherichia coli ATCC 25922 incubated for 16 to 20 hrs by broth microdilution method
Escherichia coli [5] = test: Antibacterial activity against Escherichia coli incubated for 16 to 20 hrs by broth microdilution method
Staphylococcus aureus [6] = test: Antibacterial activity against Staphylococcus aureus incubated for 16 to 20 hrs by broth microdilution method
Enterococcus faecium = test: Antibacterial activity against Enterococcus faecium incubated for 16 to 20 hrs by broth microdilution method

| SMILES | MIC [1] [µg/mL] | MIC (Staphylococcus aureus [2]) [µg/mL] | MIC [3] [µg/mL] | MIC (Klebsiella pneumoniae) [µg/mL] | MIC (Pseudomonas aeruginosa) [µg/mL] | MIC (Cronobacter sakazakii) [µg/mL] | MIC (Escherichia coli [4]) [µg/mL] | MIC (Escherichia coli [5]) [µg/mL] | MIC (Staphylococcus aureus [6]) [µg/mL] | MIC (Enterococcus faecium) [µg/mL] |
| --- | --- | --- | --- | --- | --- | --- | --- | --- | --- | --- |
| NC[C@H]1O[C@H](O[C@H]2[C@H](O)[C@@H](O[C@H]3O[C@H](CO)[C@@H](O)[C@H](N)[C@H]3O)[C@H](N)C[C@@H]2N)[C@H](N)C[C@@H]1O [TOBRAMYCIN] | 2 (≈ 4.28 µM) | 8 (≈ 17.1 µM) | 16 (≈ 34.2 µM) | 8 (≈ 17.1 µM) | 32 (≈ 68.4 µM) | 16 (≈ 34.2 µM) | 8 (≈ 17.1 µM) | > 32 | 1 (≈ 2.14 µM) | 32 (≈ 68.4 µM) |
| CN[C@H](CC(C)C)C(=O)N[C@H]1C(=O)N[C@@H](CC(N)=O)C(=O)N[C@H]2C(=O)N[C@H]3C(=O)N[C@H](C(=O)N[C@H](C(=O)O)c4cc(O)cc(O)c4-c4cc3ccc4O)[C@H](O)c3ccc(c(Cl)c3)Oc3cc2cc(c3O[C@@H]2O[C@H](CO)[C@@H](O)[C@H](O)[C@H]2O[C@H]2C[C@](C)(N)[C@H](O)[C@H](C)O2)Oc2ccc(cc2Cl)[C@H]1O [VANCOMYCIN] | 8 (≈ 5.52 µM) | 0.25 (≈ 0.173 µM) | 16 (≈ 11 µM) | 32 (≈ 22.1 µM) | 32 (≈ 22.1 µM) | 32 (≈ 22.1 µM) | 32 (≈ 22.1 µM) | > 32 |  | 16 (≈ 11 µM) |
| CCCN1C[C@H](C)[C@@H](O)[C@](C)(O)[C@@H](CC)OC(=O)[C@H](C)[C@@H](O[C@H]2C[C@](C)(OC)[C@H](O)[C@@H](C)O2)[C@H](C)[C@@H](O[C@@H]2O[C@H](C)C[C@H](N(C)C)[C@H]2O)[C@](C)(O)C[C@H]1C | 8 (≈ 10.3 µM) | 4 (≈ 5.15 µM) | 32 (≈ 41.2 µM) | 16 (≈ 20.6 µM) | 32 (≈ 41.2 µM) | 16 (≈ 20.6 µM) | 16 (≈ 20.6 µM) | 16 (≈ 20.6 µM) | 8 (≈ 10.3 µM) | 32 (≈ 41.2 µM) |
| CC[C@H]1OC(=O)C[C@@H](O)[C@H](C)[C@@H](O[C@@H]2O[C@H](C)[C@@H](O)[C@H](N(C)C)[C@H]2O)[C@@H](CCN(Cc2ccccc2)Cc2cn(-c3cnc4ccccc4c3)nn2)C[C@@H](C)C(=O)/C=C/C(C)=C/[C@@H]1CN(CC)CC |  | 0.25 (≈ 0.263 µM) |  | 8 (≈ 8.4 µM) |  | 8 (≈ 8.4 µM) | 8 (≈ 8.4 µM) |  |  |  |
| CC[C@H]1OC(=O)C[C@@H](O)[C@H](C)[C@@H](O[C@@H]2O[C@H](C)[C@@H](O)[C@H](N(C)C)[C@H]2O)[C@@H](CCN(Cc2ccc(N(C)C)cc2)Cc2cn(-c3cnc4ccccc4c3)nn2)C[C@@H](C)C(=O)/C=C/C(C)=C/[C@@H]1CN1CC(C)CC(C)C1 (stereo partly specified) |  | 2 (≈ 1.93 µM) |  | 32 (≈ 30.9 µM) |  | 32 (≈ 30.9 µM) | 8 (≈ 7.73 µM) |  |  |  |

More lines, now with the values ahead:

| MIC [1] [µg/mL] | MIC (Staphylococcus aureus [2]) [µg/mL] | MIC [3] [µg/mL] | MIC (Klebsiella pneumoniae) [µg/mL] | MIC (Pseudomonas aeruginosa) [µg/mL] | MIC (Cronobacter sakazakii) [µg/mL] | MIC (Escherichia coli [4]) [µg/mL] | MIC (Escherichia coli [5]) [µg/mL] | MIC (Staphylococcus aureus [6]) [µg/mL] | MIC (Enterococcus faecium) [µg/mL] | SMILES |
| --- | --- | --- | --- | --- | --- | --- | --- | --- | --- | --- |
| 0.5 (≈ 0.563 µM) | 0.5 (≈ 0.563 µM) | 0.5 (≈ 0.563 µM) | 2 (≈ 2.25 µM) | 1 (≈ 1.13 µM) | 8 (≈ 9.01 µM) | 2 (≈ 2.25 µM) | 2 (≈ 2.25 µM) | 0.25 (≈ 0.281 µM) | 1 (≈ 1.13 µM) | CC[C@H]1OC(=O)C[C@@H](O)[C@H](C)[C@@H](O[C@@H]2O[C@H](C)[C@@H](O)[C@H](N(C)C)[C@H]2O)[C@@H](CCN(C)Cc2cn(-c3cnc4ccccc4c3)nn2)C[C@@H](C)C(=O)/C=C/C(C)=C/[C@@H]1CN1CCCCC1 |
| 0.125 (≈ 0.152 µM) | 1 (≈ 1.22 µM) | 0.5 (≈ 0.609 µM) | 2 (≈ 2.44 µM) | 4 (≈ 4.87 µM) | 8 (≈ 9.74 µM) | 4 (≈ 4.87 µM) | 4 (≈ 4.87 µM) | 0.25 (≈ 0.304 µM) | 2 (≈ 2.44 µM) | CC[C@H]1OC(=O)C[C@@H](O)[C@H](C)[C@@H](O[C@@H]2O[C@H](C)[C@@H](O)[C@H](N(C)C)[C@H]2O)[C@@H](CCN(C)Cc2cn(-c3cnc4ccccc4c3)nn2)C[C@@H](C)C(=O)/C=C/C(C)=C/[C@@H]1CO |
| 1 (≈ 1.14 µM) | 0.125 (≈ 0.143 µM) | 0.5 (≈ 0.571 µM) | 1 (≈ 1.14 µM) | 2 (≈ 2.28 µM) | 4 (≈ 4.57 µM) | 2 (≈ 2.28 µM) | 4 (≈ 4.57 µM) | 0.5 (≈ 0.571 µM) | 2 (≈ 2.28 µM) | CC[C@H]1OC(=O)C[C@@H](O)[C@H](C)[C@@H](O[C@@H]2O[C@H](C)[C@@H](O)[C@H](N(C)C)[C@H]2O)[C@@H](CCN(C)Cc2cn(-c3cnc4ccccc4c3)nn2)C[C@@H](C)C(=O)/C=C/C(C)=C/[C@@H]1CN(CC)CC |
| 0.5 (≈ 0.59 µM) | 0.25 (≈ 0.295 µM) | 2 (≈ 2.36 µM) | 2 (≈ 2.36 µM) | 2 (≈ 2.36 µM) | 4 (≈ 4.72 µM) | 2 (≈ 2.36 µM) | 2 (≈ 2.36 µM) | 0.25 (≈ 0.295 µM) | 1 (≈ 1.18 µM) | CC[C@H]1OC(=O)C[C@@H](O)[C@H](C)[C@@H](O[C@@H]2O[C@H](C)[C@@H](O)[C@H](N(C)C)[C@H]2O)[C@@H](CCN(C)Cc2cn(-c3cnc4ccccc4c3)nn2)C[C@@H](C)C(=O)/C=C/C(C)=C/[C@@H]1CN(C)C |
|  | 0.125 (≈ 0.128 µM) |  | 32 (≈ 32.8 µM) |  | 32 (≈ 32.8 µM) | 8 (≈ 8.2 µM) |  |  |  | CC[C@H]1OC(=O)C[C@@H](O)[C@H](C)[C@@H](O[C@@H]2O[C@H](C)[C@@H](O)[C@H](N(C)C)[C@H]2O)[C@@H](CCN(Cc2ccc(Br)cc2)Cc2cn(-c3cnc4ccccc4c3)nn2)C[C@@H](C)C(=O)/C=C/C(C)=C/[C@@H]1CO |
| 1 (≈ 1.09 µM) | 0.125 (≈ 0.136 µM) | 0.5 (≈ 0.546 µM) | 1 (≈ 1.09 µM) | 1 (≈ 1.09 µM) | 4 (≈ 4.37 µM) | 2 (≈ 2.18 µM) | 2 (≈ 2.18 µM) | 0.5 (≈ 0.546 µM) | 2 (≈ 2.18 µM) | CC[C@H]1OC(=O)C[C@@H](O)[C@H](C)[C@@H](O[C@@H]2O[C@H](C)[C@@H](O)[C@H](N(C)C)[C@H]2O)[C@@H](CCN(C)Cc2cn(-c3cnc4ccccc4c3)nn2)C[C@@H](C)C(=O)/C=C/C(C)=C/[C@@H]1CN1CCCCCCC1 |
